Patent US6573275B1, “Bicyclic amines” (Syngenta Limited, priority 1995, dated 2003)

System: peach aphid (Myzus persicae)
Assay: Insecticidal test against peach aphid, infested Chinese cabbage leaves sprayed
Assay type: in vivo
Conditions: peach aphid (Myzus persicae) on Chinese cabbage leaves, sprayed with 500 ppm composition unless otherwise stated, mortality assessed after 3 days
Description: This Example illustrates the insecticidal properties of the compounds of Formula I. The activity of the compounds of Formula I was determined using a variety of pests. The pests were treated with a liquid composition containing 500 parts per million (ppm) by weight of the compound unless otherwise stated. The compositions were made by dissolving the compound in acetone and ethanol (50:50) mixture and diluting the solutions with water containing 0.05% by weight of a wetting agent sold under the trade name “SYNPERONIC” NP8 until the liquid composition contained the required concentration of the compound. “SYNPERONIC” is a Registered Trade Mark.
The test procedure adopted with regard to each pest was basically the same and comprised supporting a number of the pests on a medium which was usually a substrate, a host plant or a foodstuff on which the pests feed, and treating either or both the medium and the pests with the compositions. The mortality of the pests was then assessed at periods usually varying from two to five days after the treatment.
In this test Chinese cabbage leaves were infested with aphids, the infested leaves were sprayed with the test composition, and the mortality assessed after 3 days.

N#CC1(c2cncc(Cl)c2)CC2CCC(C1)N2Cc1c(F)ccc(F)c1Cl (centres unmarked) [Compound 258]
Score (grading of mortality): A (A indicates 80-100% mortality)

N#CC1(c2cncc(C(F)(F)F)c2)CC2CCC(C1)N2 (centres unmarked) [Compound 184]
Score (grading of mortality): A (A indicates 80-100% mortality)

N#C[C@@]1(c2cncc(Cl)c2)C[C@H]2CC[C@@H](C1)N2CC(F)(F)F [Compound 72, exo-3-(5-chloropyrid-3-yl)-endo-3-cyano-8-(2,2,2-trifluoroethyl)-8-azabicyclo[3.2.1]octane]
Score (grading of mortality): A (A indicates 80-100% mortality)

N#CC(c1ccccc1)N1C2CCC1CC(C#N)(c1cncc(Cl)c1)C2 (stereo not drawn) [Compound 115, exo-3-(5-chloropyrid-3-yl)-endo-3-cyano-8-(a-cyanobenzyl)-8-azabicyclo[3.2.1]octane]
Score (grading of mortality): A (A indicates 80-100% mortality)

CN1C2CCC1CC(C#N)(c1cncc(Cl)c1)C2 (stereo not drawn) [Compound 60, exo-3-(5-chloropyrid-3-yl)-endo-3-cyano-8-methyl-8-azabicyclo[3.2.1]octane]
Score (grading of mortality): A (A indicates 80-100% mortality)

N#CC1(c2cncc(Cl)c2)CC2CCC(C1)N2c1ccc(C(F)(F)F)cn1 (centres unmarked) [Compound 126]
Score (grading of mortality): C (C indicates less than 40% mortality)

N#CCCN1C2CCC1CC(C#N)(c1cncc(Cl)c1)C2 (stereo not drawn) [Compound 284, exo-3-(5-chloropyrid-3-yl)-endo-3-cyano-8-(2-cyanoethyl)-8-azabicyclo[3.2.1]octane]
Score (grading of mortality): A (A indicates 80-100% mortality)

N#CC1(c2cncc(Cl)c2)CC2CCC(C1)N2c1ncccn1 (centres unmarked) [Compound 182]
Score (grading of mortality): A (A indicates 80-100% mortality)

COc1cncc(C2(C#N)CC3CCC(C2)N3)c1 (centres unmarked) [Compound 172]
Score (grading of mortality): A (A indicates 80-100% mortality)

N#CC1(c2cncc(Cl)c2)CC2CCC(C1)N2Cc1ccc(F)c(F)c1 (centres unmarked) [Compound 249]
Score (grading of mortality): A (A indicates 80-100% mortality)

CN1C2CCC1CC(C#N)(c1cccc(Cl)c1Cl)C2 (centres unmarked) [Compound 5]
Score (grading of mortality): A (A indicates 80-100% mortality)

N#CC1(c2cncc(Cl)c2)CC2CCC(C1)N2Cc1ccc(Cl)s1 (centres unmarked) [Compound 125]
Score (grading of mortality): A (A indicates 80-100% mortality)

N#CC1(c2cc(F)cc(F)c2)CC2CCC(C1)N2Cc1ccc(Cl)s1 (centres unmarked) [Compound 27]
Score (grading of mortality): A (A indicates 80-100% mortality)

N#CC1(c2cncc(C(F)(F)F)c2)CC2CCC(C1)N2CC(F)(F)F (centres unmarked) [Compound 199]
Score (grading of mortality): A (A indicates 80-100% mortality)

N#CC1(c2cncc(Cl)c2)CC2CCC(C1)N2Cc1ccc(F)c(Br)c1 (centres unmarked) [Compound 230]
Score (grading of mortality): A (A indicates 80-100% mortality)

N#CC1(c2cncc(Cl)c2)CC2CCC(C1)N2Cc1cc(F)cc(Br)c1 (centres unmarked) [Compound 251]
Score (grading of mortality): A (A indicates 80-100% mortality)

N#CC1(c2cncc(C(F)(F)F)c2)CC2CCC(C1)N2Cc1cccc(Cl)c1 (centres unmarked) [Compound 186]
Score (grading of mortality): A (A indicates 80-100% mortality)

N#CC1(c2cncc(Cl)c2)CC2CCC(C1)N2Cc1ccc(C(F)(F)F)cc1 (centres unmarked) [Compound 256]
Score (grading of mortality): A (A indicates 80-100% mortality)

N#CC1(c2cncc(Cl)c2)CC2CCC(C1)N2CCOc1ccccc1 (centres unmarked) [Compound 278]
Score (grading of mortality): A (A indicates 80-100% mortality)

Cc1ccccc1CN1C2CCC1CC(C#N)(c1cncc(Cl)c1)C2 (centres unmarked) [Compound 239]
Score (grading of mortality): A (A indicates 80-100% mortality)

N#CC1(c2cncc(Cl)c2)CC2CCC(C1)N2Cc1cccc(Oc2ccccc2)c1 (centres unmarked) [Compound 229]
Score (grading of mortality): A (A indicates 80-100% mortality)

CC(=O)c1cncc(C2(C#N)CC3CCC(C2)N3C)c1 (stereo not drawn) [Compound 201, exo-3-(5-acetylpyrid-3-yl)-endo-3-cyano-8-methyl-8-azabicyclo[3.2.1]octane]
Score (grading of mortality): A (A indicates 80-100% mortality)

N#CC1(c2ccccc2)CC2CCC(C1)N2Cc1ccccc1 (single isomer, unassigned) [Compound 32]
Score (grading of mortality): A (A indicates 80-100% mortality)

CCOCN1C2CCC1CC(C#N)(c1cccnc1)C2 (centres unmarked) [Compound 48]
Score (grading of mortality): A (A indicates 80-100% mortality)

CN1C2CCC1CC(C#N)(c1cc(-c3ccncn3)ncn1)C2 (centres unmarked) [Compound 200]
Score (grading of mortality): A (A indicates 80-100% mortality)

N#CC1(c2cncc(Cl)c2)CC2CCC(C1)N2C(=O)OCC(Cl)(Cl)Cl (centres unmarked) [Compound 83]
Score (grading of mortality): A (A indicates 80-100% mortality)

N#CCCCN1C2CCC1CC(C#N)(c1cncc(Cl)c1)C2 (centres unmarked) [Compound 285]
Score (grading of mortality): A (A indicates 80-100% mortality)

CN1C2CCC1CC(C#N)(c1cncc(C(F)(F)F)c1)C2 (stereo not drawn) [Compound 174, exo-3-(5-trifluoromethylpyrid-3-yl)-endo-3-cyano-8-methyl-8-azabicyclo[3.2.1]octane]
Score (grading of mortality): A (A indicates 80-100% mortality)

N#CC1(c2cncc(Cl)c2)CC2CCC(C1)N2C=O (stereo not drawn) [Compound 110, exo-3-(5-chloropyrid-3-yl)-endo-3-cyano-8-formyl-8-azabicyclo[3.2.1]octane]
Score (grading of mortality): A (A indicates 80-100% mortality)

CN1C2CCC1CC(C#N)(c1cncc(N)c1)C2 (stereo not drawn) [Compound 134, exo-3-(5-aminopyrid-3-yl)-endo-3-cyano-8-methyl-8-azabicyclo[3.2.1]octane]
Score (grading of mortality): A (A indicates 80-100% mortality)

CN1C2CCC1CC(C#N)(c1ccncn1)C2 (centres unmarked) [Compound 194]
Score (grading of mortality): A (A indicates 80-100% mortality)

CCOC(=O)C(C)N1C2CCC1CC(C#N)(c1cncc(Cl)c1)C2 (stereo not drawn) [Compound 197, exo-3-(5-chloropyrid-3-yl)-endo-3-cyano-8-(1-(ethoxycarbonyl)ethyl)-8-azabicyclo[3.2.1]octane]
Score (grading of mortality): A (A indicates 80-100% mortality)

N#CC1(c2cncc(Cl)c2)CC2CCC(C1)N2C(=O)c1cnccc1C(F)(F)F (centres unmarked) [Compound 157]
Score (grading of mortality): C (C indicates less than 40% mortality)

N#CC1(c2cncc(Cl)c2)CC2CCC(C1)N2Cc1ccccc1-c1ccccc1 (centres unmarked) [Compound 266]
Score (grading of mortality): A (A indicates 80-100% mortality)

N#CC1(c2cncc(Cl)c2)CC2CCC(C1)N2CC(F)(F)C(F)(F)C(F)(F)F (centres unmarked) [Compound 132]
Score (grading of mortality): A (A indicates 80-100% mortality)

N#CC1(c2cncc(Cl)c2)CC2CCC(C1)N2Cc1c(Cl)cccc1Cl (centres unmarked) [Compound 260]
Score (grading of mortality): A (A indicates 80-100% mortality)

N#CC1(c2cncc(Cl)c2)CC2CCC(C1)N2C(=O)Oc1ccccc1 (centres unmarked) [Compound 82]
Score (grading of mortality): A (A indicates 80-100% mortality)

N#CC1(c2cncc(Cl)c2)CC2CCC(C1)N2Cc1ccc(F)c(Cl)c1 (stereo not drawn) [Compound 109, exo-3-(5-chloropyrid-3-yl)-endo-3-cyano-8-(3-chloro-4-fluorobenzyl)-8-azabicyclo[3.2.1]octane]
Score (grading of mortality): A (A indicates 80-100% mortality)

N#CC1(c2cncc(Cl)c2)CC2CCC(C1)N2C(=O)C(F)(F)F (centres unmarked) [Compound 96]
Score (grading of mortality): A (A indicates 80-100% mortality)

N#CC1(c2cncc(Cl)c2)CC2CCC(C1)N2CCC(=O)O (stereo not drawn) [Compound 141, exo-3-(5-chloropyrid-3-yl)-endo-3-cyano-8-(2-carboxyethyl)-8-azabicyclo[3.2.1]octane]
Score (grading of mortality): A (A indicates 80-100% mortality)

N#CC1(c2cc(F)cc(F)c2)CC2CCC(C1)N2CCF (centres unmarked) [Compound 23]
Score (grading of mortality): A (A indicates 80-100% mortality)

N#CC1(c2cncc(Cl)n2)CC2CCC(C1)N2 (centres unmarked) [Compound 299]
Score (grading of mortality): A (A indicates 80-100% mortality)

N#CC1(c2cncc(Cl)c2)CC2CCC(C1)N2CCC=C(F)F (centres unmarked) [Compound 218]
Score (grading of mortality): A (A indicates 80-100% mortality)

COCN1C2CCC1CC(C#N)(c1cccnc1)C2 (centres unmarked) [Compound 47]
Score (grading of mortality): A (A indicates 80-100% mortality)

CC(OC(=O)N1C2CCC1CC(C#N)(c1cncc(Cl)c1)C2)C(Cl)(Cl)Cl (centres unmarked) [Compound 89]
Score (grading of mortality): C (C indicates less than 40% mortality)

N#CC1(c2cncc(Cl)c2)CC2CCC(C1)N2CC1CCCCC1 (centres unmarked) [Compound 283]
Score (grading of mortality): A (A indicates 80-100% mortality)

N#CC1(c2cncc(Cl)c2)CC2CCC(C1)N2CC(F)(F)C(F)F (centres unmarked) [Compound 131]
Score (grading of mortality): A (A indicates 80-100% mortality)

CN1C2CCC1CC(C#N)(c1cnc(Cl)c(Cl)c1)C2 (stereo not drawn) [Compound 55, exo-3-(5,6-dichloropyrid-3-yl)-endo-3-cyano-8-methyl-8-azabicyclo[3.2.1]octane]
Score (grading of mortality): A (A indicates 80-100% mortality)

COC(=O)C(C)N1C2CCC1CC(C#N)(c1cncc(Cl)c1)C2 (single isomer, unassigned) [Compound 213]
Score (grading of mortality): A (A indicates 80-100% mortality)

CCCCCCCCCCN1C2CCC1CC(C#N)(c1cncc(Cl)c1)C2 (centres unmarked) [Compound 277]
Score (grading of mortality): A (A indicates 80-100% mortality)

N#CC1(c2cncc(Cl)c2)CC2CCC(C1)N2Cc1c(F)ccc(F)c1F (centres unmarked) [Compound 114]
Score (grading of mortality): A (A indicates 80-100% mortality)

COc1cncc(C2(C#N)CC3CCC(C2)N3C)n1 (centres unmarked) [Compound 214]
Score (grading of mortality): A (A indicates 80-100% mortality)

COC(=O)CN1C2CCC1CC(C#N)(c1cccnc1)C2 (stereo not drawn) [Compound 51, exo-3-(pyrid-3-yl)-endo-3-cyano-8-(methoxycarbonylmethyl)-8-azabicyclo[3.2.1]octane]
Score (grading of mortality): A (A indicates 80-100% mortality)
